In the supplement of paper PMC10307832:

compound: Cn1nnc2c(C(N)=O)ncn2c1=O [Temozolomide] + NC(=O)Nc1cc(-c2cccc(F)c2)sc1C(=O)N[C@H]1CCCNC1 [AZD7762] (partner 0.2 µM); assay: relative viability (nuclei count vs DMSO), 5 days (fraction); higher = more cells survive; details: first compound 0.2 µM
In short: (§1)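 Dosing by pin tool came one day after lung cancer cell lines were seeded in 1536-well plates, using either one drug or a fixed anchor-drug dose plus five library-drug doses (not always all listed) in √10 steps. After 5 days, nuclei were counted on 4× images. Relative viability is treated-well nuclei count divided by vehicle-well nuclei count, and values are medians of duplicate plates.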

In order of rising relative viability:
1. HCC-827  0.147
2. EPLC-272H  0.194
3. HCC-366  0.286
4. LCLC-97TM1  0.352
5. HARA  0.358
6. NCI-H2342  0.457
7. SW 900  0.587
8. CAL-12T  0.645
9. 201T  0.648
10. HCC-78  0.668
11. ABC-1  0.712
12. BEN  0.712
13. NCI-H522  0.728
14. A-427  0.758
15. HOP-62  0.82
16. LC-2-ad  0.842
17. LCLC-103H  0.849
18. ChaGo-K-1  0.939
19. HCC-44  1.03
20. EMC-BAC-2  1.12
21. HCC-15  1.53

same assay, conditions: first compound 0.6325 µM

In order of falling relative viability:
1. HCC-15  1.18
2. EMC-BAC-2  1.17
3. HCC-44  1
4. NCI-H522  0.907
5. ChaGo-K-1  0.902
6. LC-2-ad  0.85
7. H3255  0.839
8. ABC-1  0.761
9. LCLC-103H  0.758
10. A-427  0.744
11. EKVX  0.743
12. 201T  0.649
13. NCI-H1648  0.643
14. SW 900  0.63
15. CAL-12T  0.618
16. BEN  0.616
17. HCC-78  0.568
18. HOP-62  0.512
19. NCI-H2342  0.447
20. HARA  0.322
21. LCLC-97TM1  0.293
22. EPLC-272H  0.259
23. HCC-366  0.258
24. HCC-827  0.193

same assay, conditions: first compound 2 µM

In order of falling relative viability:
1. HCC-15  1.29
2. EMC-BAC-2  1.15
3. HCC-44  1.03
4. NCI-H522  0.952
5. ChaGo-K-1  0.922
6. LCLC-103H  0.902
7. HCC-78  0.899
8. H3255  0.878
9. LC-2-ad  0.873
10. BEN  0.779
11. ABC-1  0.761
12. NCI-H1648  0.756
13. 201T  0.746
14. A-427  0.698
15. EKVX  0.681
16. HOP-62  0.635
17. CAL-12T  0.628
18. SW 900  0.583
19. NCI-H2342  0.516
20. EPLC-272H  0.418
21. HCC-366  0.376
22. HARA  0.299
23. HCC-827  0.196

same assay, conditions: first compound 6.325 µM

In order of rising relative viability:
1. LCLC-97TM1  0.168
2. EPLC-272H  0.217
3. HCC-827  0.227
4. HCC-366  0.311
5. HARA  0.395
6. A-427  0.472
7. HOP-62  0.503
8. NCI-H2342  0.506
9. 201T  0.566
10. NCI-H1648  0.583
11. SW 900  0.627
12. CAL-12T  0.657
13. EKVX  0.67
14. LCLC-103H  0.678
15. BEN  0.689
16. NCI-H522  0.748
17. ABC-1  0.762
18. H3255  0.808
19. LC-2-ad  0.837
20. ChaGo-K-1  0.858
21. EMC-BAC-2  1.08
22. HCC-44  1.11
23. HCC-15  1.32

same assay, conditions: first compound 20 µM

In order of falling relative viability:
1. HCC-15  1.4
2. EMC-BAC-2  1.12
3. HCC-44  1.05
4. ChaGo-K-1  0.904
5. LCLC-103H  0.771
6. ABC-1  0.763
7. NCI-H522  0.758
8. HOP-62  0.742
9. CAL-12T  0.699
10. SW 900  0.683
11. BEN  0.678
12. LC-2-ad  0.675
13. NCI-H1648  0.614
14. HCC-78  0.566
15. NCI-H2342  0.549
16. 201T  0.519
17. A-427  0.422
18. EKVX  0.418
19. HCC-366  0.338
20. HARA  0.305
21. H3255  0.257
22. LCLC-97TM1  0.253
23. EPLC-272H  0.208
24. HCC-827  0.119

compound: Cn1nnc2c(C(N)=O)ncn2c1=O [Temozolomide] + CS(=O)(=O)N1CCN(Cc2cc3nc(-c4cccc5[nH]ncc45)nc(N4CCOCC4)c3s2)CC1 [Pictilisib] (partner 1 µM); assay: as above; details: first compound 0.2 µM
In short: as §1

In order of rising relative viability:
1. HCC-366  0.164
2. LCLC-97TM1  0.197
3. EKVX  0.23
4. NCI-H520  0.243
5. NCI-H2023  0.254
6. HCC-78  0.26
7. IA-LM  0.279
8. SK-MES-1  0.279
9. NCI-H661  0.313
10. NCI-H2228  0.354
11. EPLC-272H  0.356
12. HARA  0.376
13. COR-L 105  0.408
14. BEN  0.467
15. EBC-1  0.493
16. EMC-BAC-2  0.535
17. LC-2-ad  0.554
18. SW 1573  0.595
19. HCC-44  0.599
20. A549  0.61
21. LCLC-103H  0.614
22. NCI-H1563  0.654
23. NCI-H1650  0.661
24. 201T  0.683
25. SK-LU-1  0.688
26. ABC-1  0.726
27. ChaGo-K-1  0.784
28. A-427  0.816
29. HCC-15  0.818
30. HCC-827  0.82
31. NCI-H1299  0.823
32. HOP-62  0.918
33. NCI-H2009  0.969
34. COR-L23  1.01
35. UMC-11  1.08
36. Calu-6  1.21

same assay, conditions: first compound 0.6325 µM

In order of falling relative viability:
1. HOP-62  0.961
2. HCC-827  0.958
3. Calu-6  0.939
4. UMC-11  0.917
5. ChaGo-K-1  0.904
6. NCI-H2009  0.891
7. HCC-15  0.82
8. ABC-1  0.8
9. NCI-H1299  0.8
10. COR-L23  0.771
11. A-427  0.733
12. 201T  0.731
13. BEN  0.629
14. SK-LU-1  0.62
15. NCI-H1563  0.619
16. HCC-44  0.611
17. NCI-H1650  0.611
18. EMC-BAC-2  0.596
19. LC-2-ad  0.546
20. H3255  0.539
21. LCLC-103H  0.523
22. SW 1573  0.517
23. HARA  0.484
24. A549  0.471
25. CAL-12T  0.434
26. EKVX  0.38
27. IA-LM  0.376
28. NCI-H661  0.371
29. COR-L 105  0.366
30. SK-MES-1  0.362
31. NCI-H2228  0.36
32. EBC-1  0.358
33. EPLC-272H  0.35
34. NCI-H520  0.304
35. NCI-H2023  0.225
36. LCLC-97TM1  0.224
37. HCC-78  0.221
38. HCC-366  0.152

same assay, conditions: first compound 2 µM

In order of rising relative viability:
1. LCLC-97TM1  0.163
2. HCC-366  0.198
3. HCC-78  0.211
4. NCI-H2228  0.227
5. NCI-H2023  0.248
6. NCI-H520  0.312
7. EPLC-272H  0.334
8. IA-LM  0.385
9. EBC-1  0.388
10. NCI-H661  0.39
11. EKVX  0.391
12. H3255  0.422
13. SK-MES-1  0.424
14. CAL-12T  0.425
15. COR-L 105  0.433
16. LC-2-ad  0.511
17. SW 1573  0.517
18. A549  0.525
19. SK-LU-1  0.544
20. NCI-H1650  0.55
21. EMC-BAC-2  0.587
22. HARA  0.603
23. NCI-H1563  0.642
24. BEN  0.657
25. HCC-44  0.69
26. 201T  0.735
27. HCC-15  0.737
28. NCI-H1299  0.744
29. A-427  0.797
30. HOP-62  0.816
31. LCLC-103H  0.816
32. ABC-1  0.881
33. Calu-6  0.883
34. NCI-H2009  0.893
35. UMC-11  0.893
36. COR-L23  0.961
37. ChaGo-K-1  1.02
38. HCC-827  1.06

same assay, conditions: first compound 6.325 µM

In order of falling relative viability:
1. HCC-827  1.05
2. Calu-6  0.867
3. COR-L23  0.829
4. NCI-H1299  0.784
5. UMC-11  0.729
6. HCC-15  0.693
7. 201T  0.69
8. NCI-H2009  0.638
9. ChaGo-K-1  0.635
10. ABC-1  0.609
11. NCI-H1563  0.609
12. LC-2-ad  0.593
13. NCI-H1650  0.579
14. HCC-44  0.566
15. BEN  0.552
16. LCLC-103H  0.509
17. A549  0.507
18. EMC-BAC-2  0.497
19. SW 1573  0.483
20. HARA  0.438
21. A-427  0.417
22. COR-L 105  0.39
23. NCI-H661  0.388
24. EBC-1  0.387
25. HOP-62  0.385
26. H3255  0.38
27. EKVX  0.379
28. CAL-12T  0.334
29. SK-MES-1  0.331
30. NCI-H520  0.305
31. EPLC-272H  0.298
32. SK-LU-1  0.295
33. IA-LM  0.266
34. NCI-H2228  0.234
35. HCC-366  0.212
36. HCC-78  0.21
37. NCI-H2023  0.207
38. LCLC-97TM1  0.178

same assay, conditions: first compound 20 µM

In order of rising relative viability:
1. H3255  0.0897
2. LCLC-97TM1  0.17
3. HCC-78  0.193
4. HCC-366  0.219
5. HARA  0.256
6. NCI-H2023  0.265
7. COR-L 105  0.273
8. EKVX  0.273
9. SK-LU-1  0.281
10. SK-MES-1  0.282
11. HCC-827  0.313
12. EPLC-272H  0.326
13. NCI-H520  0.326
14. IA-LM  0.328
15. A-427  0.329
16. NCI-H661  0.39
17. CAL-12T  0.391
18. EBC-1  0.416
19. SW 1573  0.428
20. UMC-11  0.442
21. NCI-H2228  0.47
22. NCI-H1650  0.478
23. LC-2-ad  0.481
24. BEN  0.484
25. EMC-BAC-2  0.495
26. A549  0.504
27. ABC-1  0.53
28. HCC-44  0.534
29. HOP-62  0.545
30. ChaGo-K-1  0.581
31. LCLC-103H  0.62
32. 201T  0.641
33. NCI-H1563  0.664
34. COR-L23  0.715
35. HCC-15  0.786
36. NCI-H1299  0.847
37. NCI-H2009  0.87
38. Calu-6  0.974

compound: Cn1nnc2c(C(N)=O)ncn2c1=O [Temozolomide] + Nc1ncn([C@H]2C[C@H](O)[C@@H](CO)O2)c(=O)n1 [Decitabine] (partner 2 µM); assay: as above; details: first compound 0.2 µM
In short: as §1

In order of falling relative viability:
1. HCC-44  1.04
2. EMC-BAC-2  1.01
3. ABC-1  0.931
4. 201T  0.832
5. BEN  0.77
6. HCC-78  0.743
7. HCC-15  0.738
8. COR-L 105  0.691
9. HARA  0.677
10. A-427  0.565
11. ChaGo-K-1  0.521
12. COR-L23  0.452
13. EPLC-272H  0.357
14. A549  0.314
